# Data: patent US20080318938A1, “METHODS FOR TREATING ABERRANT CELL PROLIFERATION DISORDERS” (priority 2007, published 2008)
# How the values were obtained:
# Adenosine A2A receptors = Adenosine A2A receptors (Homo sapiens, UniProt P29274); assay: Receptor binding
# [1] = Distribution in human whole blood fractions (LC-MS/MS); assay type: in vitro ADME
# Method: Twenty five mL healthy donor whole blood was collected in the presence of heparin. Human whole blood was added with Compound TA1-1B to reach final concentration of 3 uM. Whole blood was gently mized and incubated at 37° C. for 4 hrs. At the end of the incubation 0.5 mL blood was collected and centrifuge at 500×g to separate the platelet-rich plasma for further analysis.
# In order to isolate white blood cells, 5 ml of treated blood was subjected to Ficoll density gradient centrifugation. At the end of the centrifugation formed buffy coat containing most of the white blood cells and Ficolle fractions containing red blood cells and granulocites were collected separately. Obtained white cell fraction was washed with 5 ml of isotonic phosphate buffer and saved for further analysis. Obtained fractions were subjected to Compound TA1-1B quantitative analysis using LC-MS/MS. Fractions obtained from untreated whole blood were used as corresponding biological matrices in LC-MS/MS based bioanalysis.
# The most part of added compound (93.7%) was found in blood formed elements than in plasma indicating to a potentially high volume of distribution and good tissue penetration of compound TA1-1B.
# [2] = tested on: sst (non-selective) Somatostatin receptor; assay: Receptor binding
# CCK2/CCKB = target: T1, CCK2/CCKB (Homo sapiens, UniProt P32239); assay: Receptor functional assay; assay type: biochemical
# T1 sequence (P32239 1-447): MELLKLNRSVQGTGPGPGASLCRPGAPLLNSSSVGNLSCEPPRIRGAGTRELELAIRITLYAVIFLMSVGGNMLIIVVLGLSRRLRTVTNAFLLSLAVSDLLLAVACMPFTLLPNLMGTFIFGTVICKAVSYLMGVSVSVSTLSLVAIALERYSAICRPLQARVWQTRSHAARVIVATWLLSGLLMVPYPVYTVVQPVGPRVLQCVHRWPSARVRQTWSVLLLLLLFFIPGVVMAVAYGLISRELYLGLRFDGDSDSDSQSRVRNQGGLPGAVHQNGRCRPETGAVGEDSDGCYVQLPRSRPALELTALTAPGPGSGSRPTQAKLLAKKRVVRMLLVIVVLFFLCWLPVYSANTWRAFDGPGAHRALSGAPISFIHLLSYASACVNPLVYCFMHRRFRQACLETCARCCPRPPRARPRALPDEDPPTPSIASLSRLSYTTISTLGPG
# Method: (§1) The binding IC50, functional effect, and functional EC50 of TA1-1B on exemplary receptors was determined.
# SST5 = SST5 (Homo sapiens, UniProt P35346); assay: Receptor functional assay; assay type: biochemical
# Method: as §1
# SST1 = SST1 (Homo sapiens, UniProt P30872); assay: Receptor functional assay; assay type: biochemical
# Method: as §1
# CCK1/CCKA = target: T2, CCK1/CCKA (Homo sapiens, UniProt P32238); assay: Receptor functional assay; assay type: biochemical
# T2 sequence (P32238 1-428): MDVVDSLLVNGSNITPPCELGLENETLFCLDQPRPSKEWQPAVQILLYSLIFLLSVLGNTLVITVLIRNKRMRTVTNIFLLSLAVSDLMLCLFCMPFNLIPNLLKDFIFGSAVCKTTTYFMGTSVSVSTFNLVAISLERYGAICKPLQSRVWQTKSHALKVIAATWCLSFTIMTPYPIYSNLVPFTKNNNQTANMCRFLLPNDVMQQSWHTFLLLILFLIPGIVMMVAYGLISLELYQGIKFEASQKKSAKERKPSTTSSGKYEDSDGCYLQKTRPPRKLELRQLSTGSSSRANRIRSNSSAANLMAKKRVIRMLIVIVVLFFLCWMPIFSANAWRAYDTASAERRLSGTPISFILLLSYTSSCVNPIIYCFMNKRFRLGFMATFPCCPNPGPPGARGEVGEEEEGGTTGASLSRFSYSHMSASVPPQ
# Method: as §1
# SST4 = SST4 (Homo sapiens, UniProt P31391); assay: Receptor functional assay; assay type: biochemical
# Method: as §1
# [3] = 3 uM, 37° C., 4 hrs, White cells
# SST1, sequence (P30872 whole entry, species assumed): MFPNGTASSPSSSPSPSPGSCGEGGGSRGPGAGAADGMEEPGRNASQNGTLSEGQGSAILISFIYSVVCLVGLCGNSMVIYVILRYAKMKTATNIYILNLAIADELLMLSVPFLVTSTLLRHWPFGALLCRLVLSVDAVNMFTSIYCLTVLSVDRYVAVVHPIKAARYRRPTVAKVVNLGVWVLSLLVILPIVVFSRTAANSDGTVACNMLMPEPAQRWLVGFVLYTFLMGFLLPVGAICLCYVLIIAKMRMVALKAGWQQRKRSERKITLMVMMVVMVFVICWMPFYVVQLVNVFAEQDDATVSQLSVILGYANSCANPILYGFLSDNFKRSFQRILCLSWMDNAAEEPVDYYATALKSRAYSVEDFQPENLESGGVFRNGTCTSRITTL
# SST5, sequence (P35346 whole entry, species assumed): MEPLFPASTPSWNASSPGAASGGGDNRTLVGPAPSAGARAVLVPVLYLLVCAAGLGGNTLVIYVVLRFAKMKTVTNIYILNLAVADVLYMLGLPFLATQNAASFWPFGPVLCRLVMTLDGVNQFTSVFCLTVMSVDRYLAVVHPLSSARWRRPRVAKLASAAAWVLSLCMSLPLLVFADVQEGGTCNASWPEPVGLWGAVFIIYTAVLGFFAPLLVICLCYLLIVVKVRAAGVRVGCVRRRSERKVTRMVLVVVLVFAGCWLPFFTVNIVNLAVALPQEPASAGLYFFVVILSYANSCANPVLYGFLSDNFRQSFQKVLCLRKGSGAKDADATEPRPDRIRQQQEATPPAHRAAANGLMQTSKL
# SST4, sequence (P31391 whole entry, species assumed): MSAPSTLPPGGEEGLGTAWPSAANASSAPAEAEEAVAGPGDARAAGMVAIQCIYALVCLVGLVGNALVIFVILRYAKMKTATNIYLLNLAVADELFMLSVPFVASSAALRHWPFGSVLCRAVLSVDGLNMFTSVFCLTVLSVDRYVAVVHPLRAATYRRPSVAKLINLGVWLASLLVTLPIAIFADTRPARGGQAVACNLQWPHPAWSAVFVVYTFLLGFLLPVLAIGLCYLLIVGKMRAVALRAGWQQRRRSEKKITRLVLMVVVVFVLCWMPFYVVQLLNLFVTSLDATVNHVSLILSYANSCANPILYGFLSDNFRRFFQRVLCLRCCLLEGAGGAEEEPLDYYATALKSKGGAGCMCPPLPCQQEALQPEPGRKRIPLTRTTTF
# Adenosine A2A receptors, sequence (P29274 whole entry): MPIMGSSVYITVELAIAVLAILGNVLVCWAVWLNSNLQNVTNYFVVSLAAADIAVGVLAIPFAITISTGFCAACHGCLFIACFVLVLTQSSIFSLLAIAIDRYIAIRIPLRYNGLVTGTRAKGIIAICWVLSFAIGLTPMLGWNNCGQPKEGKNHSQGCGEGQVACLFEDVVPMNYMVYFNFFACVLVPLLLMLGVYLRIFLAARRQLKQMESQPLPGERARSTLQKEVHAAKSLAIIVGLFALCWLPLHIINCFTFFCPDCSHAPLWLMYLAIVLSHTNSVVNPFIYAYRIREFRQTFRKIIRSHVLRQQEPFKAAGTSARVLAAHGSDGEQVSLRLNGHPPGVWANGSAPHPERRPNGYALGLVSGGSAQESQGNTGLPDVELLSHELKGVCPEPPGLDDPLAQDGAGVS
smiles,measurement,setting,value
CN1CCC[C@H]1CCNC(=O)c1cn2c3c(c(N4CCC(c5cnccn5)C4)c(F)cc3c1=O)Oc1cc3ccccc3cc1-2 (stereo partly drawn) [TA1-1B],inhibition at 1 µM,Adenosine A2A receptors,60%
same,Mass balance Amount,"[1]; 3 uM added, 5 mL",14.7 nmol
same,Mass balance Conc.,"[1]; 3 uM added, 5 mL",2.95 µM
same,% of compound in plasma fraction,"[1]; 3 uM, 37° C., 4 hrs, Plasma",6.2%
same,Amount in plasma fraction,"[1]; 3 uM, 37° C., 4 hrs, Plasma",0.92 nmol
same,Conc. in plasma fraction,"[1]; 3 uM, 37° C., 4 hrs, Plasma",0.37 µM
same,% of compound in red cells fraction,"[1]; 3 uM, 37° C., 4 hrs, Red cells",81.5%
same,Amount in red cells fraction,"[1]; 3 uM, 37° C., 4 hrs, Red cells",12.0 nmol
same,Conc. in red cells fraction,"[1]; 3 uM, 37° C., 4 hrs, Red cells",4.85 µM
same,Total amount in all fractions,"[1]; 3 uM, 37° C., 4 hrs, Total",14.7 nmol
same,% of compound in white cells fraction,[1]; [3],12.2%
same,Amount in white cells fraction,[1]; [3],1.8 nmol
same,Conc. in white cells fraction,[1]; [3],81.79 µM
same,Part of added compound found in blood formed elements,"[1]; 3 uM, 37° C., 4 hrs, red and white cells versus plasma",93.7%
same,% inhibition @ 1 uM,[2],62%
same,EC50,CCK2/CCKB; antagonist,9 µM
same,Kb,CCK2/CCKB; antagonist,0.4 µM
same,Functional Effect,CCK2/CCKB; response noted at 10 μM,Antagonist
same,EC50,SST5; agonist,4.7 µM
same,Functional Effect,SST5; response noted at 10 μM,Agonist
same,EC50,SST1; agonist,4.3 µM
same,Functional Effect,SST1; response noted at 10 μM,Agonist
same,EC50,CCK1/CCKA; antagonist,1.6 µM
same,Kb,CCK1/CCKA; antagonist,0.34 µM
same,Functional Effect,CCK1/CCKA; response noted at 1 μM,Antagonist
same,EC50,SST4; agonist,9.9 µM
same,Functional Effect,SST4; response noted at 10 μM,Agonist
